pKd: −log10 of the molar value. Read-outs that look alike come from different tables or passages of the source.
Legend:
[1] = molecular target: thyroxine antibodies immobilized within the pores of stainless steel disc-shaped monoliths; test: Scatchard plot evaluation of binding constant, stainless steel disc-shaped monoliths; set-up: species or system rabbit; conditions: total liquid volume 0.5 ml; disc-shaped monolith, 0.5 mg protein per monolith; read-out: binding constant K (Scatchard plot)
Procedure: The procedure of Example 1 was repeated, except that the cylindrical monoliths were replaced with 316 stainless steel discs 8 mm in diameter and 1.6 mm in thickness and the amount of protein per monolith was increased to 0.5 mg. Mean pore diameters were about 40μ and the total surface area of each disc was about 60 cm^2. In a random sampling of 10 discs, the average weight per disc was 0.330 g with a coefficient of variation of 0.3 percent. The discs were obtained as Stock No. S-2298 from Sintered Specialties, Janesville, Wisc. The Scatchard plot data were obtained using a total liquid volume of 0.5 ml per tube and serial dilutions of I^125 -labeled thyroxine from about 500,000 cpm to about 25,000 cpm.

[2] = molecular target: thyroxine antibodies immobilized within the pores of stainless steel cylindrical monoliths; test: Scatchard plot evaluation of binding constant, stainless steel cylindrical monoliths; set-up: species or system rabbit; conditions: ambient temperature, overnight, shaking, cylindrical monolith, read-out: binding constant K (slope of Scatchard plot) (converted)
Procedure: The treated monoliths were combined with 3.0 ml of a stock solution (prepared as described below) of an immunoglobulin-enriched fraction of an antithyroxine antiserum per 100 g of monoliths dissolved in sufficient 0.1 M phosphate buffer solution (PBS) at pH 7.0 to insure complete submersion of the monoliths (the 3.0 ml of stock solution was equivalent to 0.3 mg of protein per monolith). A water aspirator vacuum was applied to the resulting mixture for a time sufficient to insure complete penetration of the liquid phase into the pores of the monoliths. The mixture then was maintained at 4° on a reciprocating shake table (Eberbach Corporation, Ann Arbor, Mich.) for 48 hours. […] If the bound and free antigen can be separated and the quantity bound measured, then the value of K can be determined by constructing a Scatchard plot; see, e.g., E. D. Day, "Advanced Immunochemistry", Williams & Wilkens Co., Baltimore, Md., 1972, pp. 118ff. Such a procedure is particularly suited to solid-phase immunoassay systems since the bound antigen is readily separated from the free or unbound antigen. The value of K for the monolith-thyroxine antibody complex was determined as follows. […] (3) Each tube was counted for one minute to obtain total counts. […]

Question: What does the source list for `N[C@@H](Cc1cc(I)c(Oc2cc(I)c(O)c(I)c2)c(I)c1)C(=O)O` [thyroxine]?
Answer: pKd [1]: 9.00; Kd ([2]; total reaction volume 0.5 ml): 175 pM; Kd ([2]; total reaction volume 1.0 ml): 167 pM
